# According to patent US20240207427A1, “SELECTIVE DRUG RELEASE FROM INTERNALIZED CONJUGATES OF BIOLOGICALLY ACTIVE COMPOUNDS” (priority 2021, published 2024):
# Like-named read-outs stand apart in the source and are kept apart here.
# Assays:
# Format in all cases: cell-based
# [1] = system: non-small-cell lung cancer cells (Calu1); experiment: In vitro potency (CellTiter-Glo, 96 h), Calu1; details: Homo sapiens, Calu-1, 96 h, Table 28; CPT free drugs; non-small-cell lung cancer cells Calu1; 96 h, CellTiter-Glo; read-out: Calu1 IC50
# Experimental: (§1) In vitro potency was assessed on multiple cancer cell lines. All cell lines were authenticated by STR profiling at IDEXX Bioresearch and cultured for no more than 2 months after resuscitation. Cells cultured in log-phase growth were seeded for 24 hours in 96-well plates containing […] RPMI 1640 supplemented with 20% FBS. Serial dilutions of antibody-drug conjugates in cell culture media were prepared at 4× working concentrations, and 50 μL of each dilution was added to the 96-well plates. Following addition of test articles, cells were incubated with test articles for 4 days at 37 0° C. After 96 hours, growth inhibition was assessed by CellTiterGlo® (Promega, Madison, WI) and luminescence was measured on a plate reader.
# (§2) In Table 7, IC50 values for ADCs are given in ng/mL. Cell viability was determined by CellTiter-Glo staining after 96 h exposure to ADC. ND=Not Determined. Ag2 is an antibody targeting a ubiquitous and readily internalizable antigen. The cancer cell lines tested are renal carcinoma cells (786-0), melanoma cells (A2058), pancreatic cancer cells (BxPC3), non-small-cell lung cancer cells (Calu1), anaplastic large cell lymphoma cells (DEL, DELBVR, Karpas299), Hodgkin's lymphoma cells (L540cy), (Ls174T), breast cancer cells (MDA-MB-231), acute myeloid leukemia cells (MOLM-13), and B-lymphocyte cancer cells (SU-DHL4).
# as §1, with “FBS.” for “FBS. Serial dilutions of antibody-drug conjugates in cell culture media were prepared at 4× working concentrations, and 50 μL of each dilution was added to the 96-well plates.”
# (§3) Cell viability was determined by CellTiter-Glo staining after 96 h exposure to the compound. ND=Not Determined. The cancer cell lines tested are renal carcinoma cells (786-0), melanoma cells (A2058), pancreatic cancer cells (BxPC3), non-small-cell lung cancer cells (Calu1), anaplastic large cell lymphoma cells (DEL, DELBVR, Karpas299), Hodgkin's lymphoma cells (L540cy), (Ls 174T), breast cancer cells (MDA-MB-231), acute myeloid leukemia cells (MOLM-13), B-lymphocyte cancer cells (SU-DHL4), multiple myeloma cells (MM.1R), (U266), and melanoma cells (SK-MEL-5).
# as §1, with “37°” for “37 0°”
# (§4) In the following Tables IC50 values for ADCs and CPT free drugs are given in ng/mL and nmol/L concentrations. Cell viability was determined by CellTiter-Glo staining after 96 h exposure to ADC or CPT free drug.
# (§5) Cell viability was determined by CellTiter-Glo staining after 96 h exposure to ADC. ND=Not Determined.
# [2] = system: Ls174T cells; experiment: In vitro potency (CellTiter-Glo, 96 h), Ls174T; details: Homo sapiens, LS174T, 96 h
# Experimental: as §1, §2
# as §1, with “FBS.” for “FBS. Serial dilutions of antibody-drug conjugates in cell culture media were prepared at 4× working concentrations, and 50 μL of each dilution was added to the 96-well plates.”
# as §3
# as §1, with “37°” for “37 0°”
# as §4, §5
# [3] = system: anaplastic large cell lymphoma cells (DELBVR); experiment: In vitro potency (CellTiter-Glo, 96 h), DELBVR
# Experimental: as §1, §2
# as §1, with “FBS.” for “FBS. Serial dilutions of antibody-drug conjugates in cell culture media were prepared at 4× working concentrations, and 50 μL of each dilution was added to the 96-well plates.”
# as §3
# as §1, with “37°” for “37 0°”
# as §4, §5
# [4] = system: breast cancer cells (MDA-MB-231); experiment: In vitro potency (CellTiter-Glo, 96 h), MDA-MB-231; details: Homo sapiens, MDA-MB-231, 96 h
# Experimental: as §1, §2
# as §1, with “FBS.” for “FBS. Serial dilutions of antibody-drug conjugates in cell culture media were prepared at 4× working concentrations, and 50 μL of each dilution was added to the 96-well plates.”
# as §3
# as §1, with “37°” for “37 0°”
# as §4, §5
# [5] = system: acute myeloid leukemia cells (MOLM-13); experiment: In vitro potency (CellTiter-Glo, 96 h), MOLM-13; details: Homo sapiens, MOLM-13, 96 h
# Experimental: as §1, §2
# as §1, with “FBS.” for “FBS. Serial dilutions of antibody-drug conjugates in cell culture media were prepared at 4× working concentrations, and 50 μL of each dilution was added to the 96-well plates.”
# as §3
# as §1, with “37°” for “37 0°”
# as §4, §5
# [6] = system: B-lymphocyte cancer cells (SU-DHL4); experiment: In vitro potency (CellTiter-Glo, 96 h), SU-DHL-4; details: Homo sapiens, SU-DHL-4, 96 h
# Experimental: as §1, §2
# as §1, with “FBS.” for “FBS. Serial dilutions of antibody-drug conjugates in cell culture media were prepared at 4× working concentrations, and 50 μL of each dilution was added to the 96-well plates.”
# as §3
# as §1, with “37°” for “37 0°”
# as §4, §5
# [7] = system: renal carcinoma cells (786-O); experiment: In vitro potency (CellTiter-Glo, 96 h), 786-O; details: Homo sapiens, 786-0, 96 h
# Experimental: as §1, §2
# as §1, with “FBS.” for “FBS. Serial dilutions of antibody-drug conjugates in cell culture media were prepared at 4× working concentrations, and 50 μL of each dilution was added to the 96-well plates.”
# as §3
# as §1, with “37°” for “37 0°”
# as §4, §5
# [8] = system: pancreatic cancer cells (BxPC3); experiment: In vitro potency (CellTiter-Glo, 96 h), BxPC3; details: Homo sapiens, BXPC-3, 96 h
# Experimental: as §1, §2
# as §1, with “FBS.” for “FBS. Serial dilutions of antibody-drug conjugates in cell culture media were prepared at 4× working concentrations, and 50 μL of each dilution was added to the 96-well plates.”
# as §3
# as §1, with “37°” for “37 0°”
# as §4, §5
# [9] = system: melanoma cells (A2058); experiment: In vitro potency (CellTiter-Glo, 96 h), A2058; details: Homo sapiens, A2058, 96 h, read-out: A2058 IC50
# Experimental: as §1, §2
# as §1, with “FBS.” for “FBS. Serial dilutions of antibody-drug conjugates in cell culture media were prepared at 4× working concentrations, and 50 μL of each dilution was added to the 96-well plates.”
# as §3
# as §1, with “37°” for “37 0°”
# as §4, §5
# [10] = system: anaplastic large cell lymphoma cells (DEL); experiment: In vitro potency (CellTiter-Glo, 96 h), DEL
# Experimental: as §1, §2
# as §1, with “FBS.” for “FBS. Serial dilutions of antibody-drug conjugates in cell culture media were prepared at 4× working concentrations, and 50 μL of each dilution was added to the 96-well plates.”
# as §3
# as §1, with “37°” for “37 0°”
# as §4, §5
# [11] = system: anaplastic large cell lymphoma cells (Karpas299); experiment: In vitro potency (CellTiter-Glo, 96 h), Karpas299; details: Homo sapiens, KARPAS-299, 96 h
# Experimental: as §1, §2
# as §1, with “FBS.” for “FBS. Serial dilutions of antibody-drug conjugates in cell culture media were prepared at 4× working concentrations, and 50 μL of each dilution was added to the 96-well plates.”
# as §3
# as §1, with “37°” for “37 0°”
# as §4, §5
# [12] = system: Hodgkin's lymphoma cells (L540cy); experiment: In vitro potency (CellTiter-Glo, 96 h), L540cy
# Experimental: as §1, §2
# as §1, with “FBS.” for “FBS. Serial dilutions of antibody-drug conjugates in cell culture media were prepared at 4× working concentrations, and 50 μL of each dilution was added to the 96-well plates.”
# as §3
# as §1, with “37°” for “37 0°”
# as §4, §5
# [13] = camptothecin free drug, read-out: Ls174T IC50
# [14] = camptothecin free drug, read-out: DELBVR IC50
# [15] = camptothecin free drug, 96 h, read-out: MDAMB231 IC50
# [16] = camptothecin free drug, 96 h, read-out: MOLM-13 IC50
# [17] = camptothecin free drug, 96 h, read-out: SU-DHL-4 IC50
# [18] = camptothecin free drug, 96 h, read-out: 786-O IC50
# [19] = camptothecin free drug, 96 h, read-out: BxPC3 IC50
# [20] = camptothecin free drug, read-out: DEL IC50
# [21] = camptothecin free drug, 96 h, read-out: Karpas299 IC50
# [22] = camptothecin free drug, read-out: L540cy IC50
compound,measurement,setting,value
CC[C@@]1(O)C(=O)OCc2c1cc1n(c2=O)Cc2c-1nc1cc(F)c(SC)cc1c2CN [Compound 2at],IC50,[1],37 nM
CC[C@@]1(O)C(=O)OCc2c1cc1n(c2=O)Cc2c-1nc1cc3c(cc1c2CNCCCN(C)C(=O)OC(C)(C)C)OCO3 [Compound 7a],IC50,[2]; [13],74 nM
same,IC50,[3]; [14],49 nM
same,IC50,[4]; [15],390 nM
same,IC50,[5]; [16],223 nM
same,IC50,[6]; [17],64 nM
same,IC50,[7]; [18],111 nM
same,IC50,[8]; [19],81 nM
same,IC50,"[9]; camptothecin free drug, 96 h",23 nM
same,IC50,[10]; [20],25 nM
same,IC50,[11]; [21],135 nM
same,IC50,[12]; [22],52 nM
CC[C@@]1(O)C(=O)OCc2c1cc1n(c2=O)Cc2c-1nc1cc3c(cc1c2CN1CCN(CCNC(=O)OC(C)(C)C)CC1)OCO3 [Compound 7af],IC50,[2]; [13],80 nM
same,IC50,[3]; [14],24 nM
same,IC50,[4]; [15],1000 nM
same,IC50,[5]; [16],110 nM
same,IC50,[6]; [17],48 nM
same,IC50,[7]; [18],177 nM
same,IC50,[8]; [19],176 nM
same,IC50,"[9]; camptothecin free drug, 96 h",38 nM
same,IC50,[10]; [20],15 nM
same,IC50,[11]; [21],127 nM
same,IC50,[12]; [22],62 nM
CC[C@@]1(O)C(=O)OCc2c1cc1n(c2=O)Cc2c-1nc1cc3c(cc1c2CNCCN1CCN(C(=O)OC(C)(C)C)CC1)OCO3 [Compound 7f],IC50,[2]; [13],69 nM
same,IC50,[3]; [14],52 nM
same,IC50,[4]; [15],776 nM
same,IC50,[5]; [16],> 1000 nM
same,IC50,[6]; [17],83 nM
same,IC50,[7]; [18],130 nM
same,IC50,[8]; [19],155 nM
same,IC50,"[9]; camptothecin free drug, 96 h",41 nM
same,IC50,[10]; [20],52 nM
same,IC50,[11]; [21],162 nM
same,IC50,[12]; [22],66 nM
CC[C@@]1(O)C(=O)OCc2c1cc1n(c2=O)Cc2c-1nc1cc3c(cc1c2CNCC(O)CN1CCOCC1)OCO3 (stereo partly shown) [Compound 7i],IC50,"[2]; read-out: Ls174T IC50, Table 29, CPT free drugs, Ls174T cells, CellTiter-Glo",110 nM
same,IC50,"[2]; read-out: Ls174T IC50, camptothecin free drug, 96 h",72 nM
same,IC50,"[3]; read-out: DELBVR IC50, Table 29, CPT free drugs, anaplastic large cell lymphoma cells DELBVR, CellTiter-Glo",17 nM
same,IC50,"[3]; read-out: DELBVR IC50, camptothecin free drug, 96 h",51 nM
same,IC50,"[4]; read-out: MDAMB231 IC50, Table 29, CPT free drugs, breast cancer cells MDA-MB-231, 96 h, CellTiter-Glo",183 nM
same,IC50,"[4]; read-out: MDAMB231 IC50, camptothecin free drug, 96 h",1000 nM
same,IC50,"[5]; read-out: MOLM-13 IC50, Table 29, CPT free drugs, acute myeloid leukemia cells MOLM-13, 96 h, CellTiter-Glo",183 nM
same,IC50,"[5]; read-out: MOLM-13 IC50, camptothecin free drug, 96 h",312 nM
same,IC50,"[6]; read-out: SU-DHL-4 IC50, Table 29, CPT free drugs, B-lymphocyte cancer cells SU-DHL4, 96 h, CellTiter-Glo",32 nM
same,IC50,"[6]; read-out: SU-DHL-4 IC50, camptothecin free drug, 96 h",72 nM
same,IC50,"[7]; read-out: 786-O IC50, Table 29, CPT free drugs, renal carcinoma cells 786-O, 96 h, CellTiter-Glo",118 nM
same,IC50,"[7]; read-out: 786-O IC50, camptothecin free drug, 96 h",128 nM
same,IC50,"[8]; read-out: BxPC3 IC50, Table 29, CPT free drugs, pancreatic cancer cells BxPC3, 96 h, CellTiter-Glo",57 nM
same,IC50,"[8]; read-out: BxPC3 IC50, camptothecin free drug, 96 h",106 nM
same,IC50,[9],33 nM
same,IC50,"[10]; read-out: DEL IC50, Table 29, CPT free drugs, anaplastic large cell lymphoma cells DEL, CellTiter-Glo",9 nM
same,IC50,"[10]; read-out: DEL IC50, camptothecin free drug, 96 h",38 nM
same,IC50,"[11]; read-out: Karpas299 IC50, Table 29, CPT free drugs, anaplastic large cell lymphoma cells Karpas299, 96 h, CellTiter-Glo",84 nM
same,IC50,"[11]; read-out: Karpas299 IC50, camptothecin free drug, 96 h",154 nM
same,IC50,"[12]; read-out: L540cy IC50, Table 29, CPT free drugs, Hodgkin's lymphoma cells L540cy, CellTiter-Glo",48 nM
same,IC50,"[12]; read-out: L540cy IC50, camptothecin free drug, 96 h",63 nM
